Source: publication PMC6534212, “Synthesis and biological evaluation of 3–(4-aminophenyl)-coumarin derivatives as potential anti-Alzheimer’s disease agents” (Journal of Enzyme Inhibition and Medicinal Chemistry, 2019)
Entries after “also recorded” stand apart in the source; their conditions may differ.

Legend:
zebrafish juveniles = experiment: Model of exercise retardation, death and teratogenicity in zebrafish juveniles made of aluminium trichloride; settings: for Movement distance: 72 hpe, n=6; for Movement distance / Malformation rate / Mortality rate: mean ± SE; for Malformation rate / Mortality rate: after 72 h, n=90
Protocol: The 72 hpf zebrafish were placed in a petri dish, and the normal developing juveniles were selected under a microscope in a 12-well plate. The concentration of AlCl3 in the experiment was set to 0, 0.1, 0.5, 1.0, 5.0, 10.0, and 50.0 mg/L (prepared for aquaculture water), three replicate wells were set in each concentration group and then placed in a constant temperature incubator at 28 °C to continue the culture. The continuous drug solution was exposed for 3 days. The different concentrations of AlCl3 and the blank control group were placed in 48-well plates. Each well was juvenile fish developed to 72 h post-exposure (hpe) and added 0.5 mL of culture water and 8 juveniles were set in each experimental group. The well plate was placed in the dark box of the zebrafish behaviour analysis system. The fish was first adapted to 10 min at the beginning of the experiment. The trajectories of the juveniles in each group were collected using zeblab software for 10 min, recorded every 5 min, and exported by software. Then calculate the total distance of each group of zebrafish juveniles. The effects of different concentrations of aluminium trichloride on the death and teratogenicity of zebrafish juveniles were observed by microscopy.

BuChE from equine serum = molecular target: T1, BuChE from equine serum (Equus caballus, UniProt P81908); experiment: biochemical; format: biochemical; settings: BuChE from equine serum; mean ± SD (n=3)
T1 construct: Butyrylcholinesterase (BuChE, from equine serum, Aladdin, Shanghai, China); purchased Aladdin, Shanghai, China; host or cells: equine serum
T1 sequence (P81908 whole entry): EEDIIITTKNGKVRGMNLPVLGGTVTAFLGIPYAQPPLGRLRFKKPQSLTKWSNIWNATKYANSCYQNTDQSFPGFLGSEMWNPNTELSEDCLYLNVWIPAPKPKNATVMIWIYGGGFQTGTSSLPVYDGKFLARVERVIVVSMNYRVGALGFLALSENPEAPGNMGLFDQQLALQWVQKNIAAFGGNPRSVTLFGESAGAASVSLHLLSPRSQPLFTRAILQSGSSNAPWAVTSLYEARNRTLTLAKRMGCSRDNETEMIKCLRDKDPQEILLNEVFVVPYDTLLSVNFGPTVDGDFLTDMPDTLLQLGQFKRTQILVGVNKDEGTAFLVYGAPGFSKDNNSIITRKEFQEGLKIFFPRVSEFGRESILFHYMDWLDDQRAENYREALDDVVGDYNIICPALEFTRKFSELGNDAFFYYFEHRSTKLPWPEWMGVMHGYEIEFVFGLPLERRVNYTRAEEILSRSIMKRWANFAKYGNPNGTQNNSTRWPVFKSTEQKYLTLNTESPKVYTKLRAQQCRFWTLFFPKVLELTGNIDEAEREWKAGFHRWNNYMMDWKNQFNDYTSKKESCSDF
Protocol: (§1) In the experiment, 0.05 mol/L phosphate buffered saline (PBS) of pH 8.0 was prepared first, and then the following solutions were prepared: 1.5 mmol/L Acetylthiocholine iodide (ATChI); 0.75 mmol/L 5, 5'-Dithiobis-(2-nitrobenzoic acid) (DTNB, Sigma Aldrich, St. Louis, MO); 0.2 U/mL Acetylcholinesterase (AChE, from […], Macklin); 0.5 U/mL Butyrylcholinesterase (BuChE, from equine serum, Aladdin, Shanghai, China); 1.5 mmol/L S-Butyrylthiocholine iodide (BTChI, Sigma Aldrich, St. Louis, MO). 4% sodium dodecyl sulphate (SDS) was prepared with secondary water. […] All solutions were stored in a refrigerator at 4 °C.
(§2) The AChE/BuChE inhibitory activity of the 3–(4-aminophenyl)-coumarin derivatives was determined by the method of Ellaman[28] with slight modifications. The experiment was divided into control group, sample blank group and sample group. Take a series of test tubes, the reagents were loaded in test tubes at the dose of Table 6. After incubation at 37 °C for 20 min, quickly add 1 mL of 4% SDS to stop the reaction. […] All experiments were run in triplicate. The absorbance was determined by UV spectrophotometer, and the inhibition rate of AChE and the IC50 value of each sample were calculated according to the formula. Inhibition rate % = {[(AC−AS)−ASB]/AC} ×100%, where AC (no sample added) is the absorbance of control group; AS is the absorbance of sample group; ASB (add sample solution but no substrate ATChI added) is the absorbance of sample blank group.
The method for determining BuChE is the same as the method for measuring AChE. The sample can be added with reference to Table 6, AChE is changed to BuChE, and the substrate ATChI is changed to substrate BTChI. The order of loading and the amount of loading are the same as Table 6. The absorbance was determined by UV spectrophotometer, and the inhibition rate of BuChE and the IC50 value of each sample were calculated according to the formula. The formula used is the same as AChE.

[1] = system: aluminium trichloride-induced zebrafish juveniles; experiment: Effects of compounds on aluminium trichloride-induced behavioural inhibition of zebrafish juveniles (Zebrobox); settings: for Total movement distance: mean ± SE, n=8; for Effect on behavioural inhibition of zebrafish induced by aluminium trichloride (in words): compared with the model group
Protocol: The most suitable modelling concentrations were chosen, and then the effect of the compounds on the behaviour of the aluminium trichloride-induced zebrafish juveniles was explored.
The 72 hpf zebrafish were placed in a petri dish, and the normal developing juveniles were selected under a microscope in a 12-well plate. […] The continuous drug solution was exposed for 3 days. […] Each well was juvenile fish developed to 72 h post-exposure (hpe) and added 0.5 mL of culture water and 8 juveniles were set in each experimental group. The well plate was placed in the dark box of the zebrafish behaviour analysis system. The fish was first adapted to 10 min at the beginning of the experiment. The trajectories of the juveniles in each group were collected using zeblab software for 10 min, recorded every 5 min, and exported by software. Then calculate the total distance of each group of zebrafish juveniles.
The zebrafish with 72 hpf after fertilisation is placed in a petri dish. Under normal conditions, the normal developing juvenile fish are selected in a 12-well plate, and 15 juveniles per hole are set. Control group (0.5% DMSO), model group (5.0 mg/L AlCl3), 5.0 mg/L AlCl3 + test compound 5 μg/mL group, 5.0 mg/L AlCl3 + test compound 10 μg/mL group, 5.0 mg/L AlCl3 + test compound 50 μg/mL group, 5.0 mg/L AlCl3 + test compound 100 μg/mL group, three duplicate wells were set at each concentration. After the administration, the zebrafish was placed in a constant temperature incubator at 28 °C to continue the culture for 3 days. Changing the liquid (aquaculture water) every 24 h and removing dead young fish.

[2] = molecular target: T2, AChE from Electrophorus electricus (Electrophorus electricus, UniProt O42275); experiment: biochemical; format: biochemical; settings: for IC50: AChE from Electrophorus electricus, mean ± SD (n=3); for AChE inhibitory activity (in words): verbal summary of Table 2; for Selectivity AChE/BuChE (in words): verbal summary of SI
T2 construct: purchased Macklin
T2 sequence (O42275 24-633): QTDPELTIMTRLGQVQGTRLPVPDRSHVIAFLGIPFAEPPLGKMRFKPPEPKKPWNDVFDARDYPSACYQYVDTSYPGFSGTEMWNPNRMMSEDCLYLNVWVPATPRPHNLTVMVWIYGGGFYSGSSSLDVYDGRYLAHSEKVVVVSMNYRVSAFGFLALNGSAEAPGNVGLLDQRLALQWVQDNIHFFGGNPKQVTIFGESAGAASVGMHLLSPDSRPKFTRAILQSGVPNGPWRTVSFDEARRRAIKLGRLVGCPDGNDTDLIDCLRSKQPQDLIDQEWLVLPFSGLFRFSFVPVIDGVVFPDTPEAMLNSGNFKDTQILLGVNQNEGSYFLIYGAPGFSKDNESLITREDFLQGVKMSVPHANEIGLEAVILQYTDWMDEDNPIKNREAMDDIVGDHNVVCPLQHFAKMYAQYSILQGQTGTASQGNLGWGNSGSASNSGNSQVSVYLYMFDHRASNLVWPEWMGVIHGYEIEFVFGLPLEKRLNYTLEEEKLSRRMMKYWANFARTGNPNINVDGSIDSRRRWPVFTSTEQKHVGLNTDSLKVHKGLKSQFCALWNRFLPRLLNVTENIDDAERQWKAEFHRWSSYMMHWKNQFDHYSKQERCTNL
Protocol: as §1, §2

[3] = 5 mg/L compound + 5.0 mg/L AlCl3, 3 days
[4] = 10 mg/L compound + 5.0 mg/L AlCl3, 3 days
[5] = 50 mg/L compound + 5.0 mg/L AlCl3, 3 days
[6] = 100 mg/L compound + 5.0 mg/L AlCl3, 3 days

SMILES | IC50 (BuChE from equine serum) [µM] | Total movement distance [1, 3] [cm] | Total movement distance [1, 4] [cm] | Total movement distance [1, 5] [cm] | Total movement distance [1, 6] [cm] | IC50 [2] [µM] | SI: selectivity index (IC50 BuChE/IC50 AChE) [2] | AChE inhibitory activity (in words) [2] | further results
[Cl][Al]([Cl])[Cl] [AlCl3, aluminium trichloride] |  |  |  |  |  |  |  |  | Movement distance (zebrafish juveniles; AlCl3 0.1 mg/L): 292.4 ± 6.7 cm; Malformation rate (zebrafish juveniles; AlCl3 0.1 mg/L): 0.00 ± 0.00%; Mortality rate (zebrafish juveniles; AlCl3 0.1 mg/L): 0.00 ± 0.00%; Movement distance (zebrafish juveniles; AlCl3 0.5 mg/L): 236.8 ± 9.4 cm; Malformation rate (zebrafish juveniles; AlCl3 0.5 mg/L): 0.00 ± 0.00%; Mortality rate (zebrafish juveniles; AlCl3 0.5 mg/L): 0.00 ± 0.00%; Movement distance (zebrafish juveniles; AlCl3 1.0 mg/L): 224.3 ± 10.8 cm; Malformation rate (zebrafish juveniles; AlCl3 1.0 mg/L): 1.11 ± 0.17%; Mortality rate (zebrafish juveniles; AlCl3 1.0 mg/L): 0.00 ± 0.00%; Movement distance (zebrafish juveniles; AlCl3 5.0 mg/L): 181.3 ± 9.6 cm; Malformation rate (zebrafish juveniles; AlCl3 5.0 mg/L): 2.22 ± 0.17%; Mortality rate (zebrafish juveniles; AlCl3 5.0 mg/L): 1.11 ± 0.17%; Movement distance (zebrafish juveniles; AlCl3 10.0 mg/L): 204.6 ± 12.8 cm; Malformation rate (zebrafish juveniles; AlCl3 10.0 mg/L): 16.67 ± 0.29 %; Mortality rate (zebrafish juveniles; AlCl3 10.0 mg/L): 11.11 ± 0.17 %; Death or malformation of zebrafish (in words) (zebrafish juveniles; AlCl3 50.0 mg/L, after 24 h administration): Most of the fish in the 50.0 mg/L group were dead or malformed; Malformation rate (zebrafish juveniles; AlCl3 50.0 mg/L): 100.00 ± 0.00 %; Mortality rate (zebrafish juveniles; AlCl3 50.0 mg/L): 100.00 ± 0.00 %; Death of zebrafish (in words) (zebrafish juveniles; AlCl3 50.0 mg/L, at 48 h): all fish died
COc1cccc2cc(-c3ccc(NC(=O)c4ccc(C(F)(F)F)cc4)cc3)c(=O)oc12 [Compound 4l, 3-[4-(4-trifluoromethyl-benzoylamino)-phenyl]-8-methoxy-coumarin] | 4.32 ± 0.685 | 179.9 ± 10.1 | 194.6 ± 13.6 | 211.5 ± 20.2 | 184.8 ± 11.5 | 5.6 ± 0.132 | 0.772 | moderate to excellent AChE inhibitory activity | 
COc1cccc2cc(-c3ccc(NC(=O)c4ccc(CCl)cc4)cc3)c(=O)oc12 [Compound 4m, 3-[4-(4-chloromethyl-benzoylamino)-phenyl]-8-methoxy-coumarin] | 41.2 ± 1.04 | 198.3 ± 10.1 | 210.2 ± 6.0 | 230.8 ± 6.2 | 247.1 ± 12.3 | 0.091 ± 0.011 | 452.637 | moderate to excellent AChE inhibitory activity | Effect on total distance of zebrafish juvenile movement (in words) ([1]; at 50.0 and 100.0 μg/mL concentration): significant therapeutic effect; also recorded: significant effects compared with the model group; Effect on behavioural inhibition of zebrafish induced by aluminium trichloride (in words) [1]: certain therapeutic effects; also recorded: could alleviate the behavioural inhibition symptoms; Selectivity AChE/BuChE (in words) [2]: highly selective for AChE
COc1cccc2cc(-c3ccc(NC(=O)c4cccc(Cl)c4Cl)cc3)c(=O)oc12 [Compound 4r, 3-[4-(2,3-dichloro-benzoylamino)-phenyl]-8-methoxy-coumarin] | 4.33 ± 0.125 | 178 ± 11.2 | 182.4 ± 4.6 | 196.4 ± 11.7 | 194.4 ± 9.4 | 19.7 ± 2.45 | 0.220 |  | 
O=C(Nc1ccc(-c2cc3ccc(O)cc3oc2=O)cc1)c1ccco1 [Compound 5a, 3-[4-(furan-2-formylamino)-phenyl]-7-hydroxy-coumarin] | 9.55 ± 0.455 | 194.2 ± 6.5 | 188.8 ± 14.7 | 215.5 ± 17.1 | 187.2 ± 6.2 | 2.49 ± 0.151 | 3.842 | moderate to excellent AChE inhibitory activity | 
COc1cccc2cc(-c3ccc(NC(=O)c4ccc5ccccc5c4)cc3)c(=O)oc12 [Compound 7b, 3-[4-(2-naphthoylamino)-phenyl]-8-methoxy-coumarin] | 43.8 ± 1.97 |  | 278.4 ± 11.4 | 227.4 ± 8.1 | 272.1 ± 10.4 | 0.128 ± 0.011 | 341.87 | moderate to excellent AChE inhibitory activity | Selectivity AChE/BuChE (in words) [2]: highly selective for AChE
COc1cccc2cc(-c3ccc(NC(=O)c4cccs4)cc3)c(=O)oc12 [Compound 7d, 3-[4-(thiophene-2-formylamino)-phenyl]-8-methoxy-coumarin] | 4.65 ± 0.245 | 202.9 ± 6.2 | 208.4 ± 9.7 | 224.2 ± 9.2 | 235.4 ± 11.4 | 6.63 ± 0.12 | 0.700 | moderate to excellent AChE inhibitory activity | Effect on behavioural inhibition of zebrafish induced by aluminium trichloride (in words) [1]: certain therapeutic effects; also recorded: could alleviate the behavioural inhibition symptoms
